Results as given in PubChem BioAssay AID330 (DTP/NCI, 2004).
“And” between values parts separate entries of the source, which are not always exact repeats. Equal values may be shown once. Inconclusive results and toxic doses are left out.

Tested on: P388 leukemia ip, CD2F1 mice, survival T/C
Test: NCI In Vivo Anticancer Drug Screen. Data for tumor model P388 Leukemia (intraperitoneal) in CD2F1 (CDF1) mice
Settings: endpoint: median survival time, higher = longer survival
Outline: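 Mice carrying the transplanted tumor received test compound or vehicle. Survival was recorded in each group, and the value is the treated-group measurement divided by that of the vehicle-treated control group.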

[1] = dose: 50.0 mg/kg/injection, schedule: Q01DX001 (ip), vehicle: Klucel (hydroxypropylcellulose) (HPC)
[2] = dose: 100.0 mg/kg/injection, schedule: Q01DX001 (ip), vehicle: Klucel (hydroxypropylcellulose) (HPC)
[3] = dose: 12.5 mg/kg/injection, schedule: Q01DX009 (ip), vehicle: saline
[4] = dose: 25.0 mg/kg/injection, schedule: Q01DX009 (ip), vehicle: saline
[5] = dose: 50.0 mg/kg/injection, schedule: Q01DX009 (ip), vehicle: saline
[6] = dose: 200.0 mg/kg/injection, schedule: Q01DX009 (ip), vehicle: saline
[7] = dose: 50.0 mg/kg/injection, schedule: Q01DX005 (ip), vehicle: saline with Tween-80
[8] = dose: 100.0 mg/kg/injection, schedule: Q01DX005 (ip), vehicle: saline with Tween-80

CS(=O)(=O)N(CC(=O)O)Cc1ccc(Cl)c(Cl)c1
T/C (dose: 25.0 mg/kg/injection, schedule: Q04DX003 (ip), vehicle: Klucel + Tween-80): 92 % of control | T/C (dose: 50.0 mg/kg/injection, schedule: Q04DX003 (ip), vehicle: Klucel + Tween-80): 100 % of control | T/C (dose: 100.0 mg/kg/injection, schedule: Q04DX003 (ip), vehicle: Klucel + Tween-80): 98 % of control | T/C (dose: 200.0 mg/kg/injection, schedule: Q04DX003 (ip), vehicle: Klucel + Tween-80): 91 % of control

COc1c2c(cc3ccc(=O)oc13)C=CC(C)(C)O2
T/C (dose: 9.75 mg/kg/injection, schedule: Q01DX005 (ip), vehicle: Klucel (hydroxypropylcellulose) (HPC)): 100 % of control | T/C (dose: 19.5 mg/kg/injection, schedule: Q01DX005 (ip), vehicle: Klucel (hydroxypropylcellulose) (HPC)): 89 % of control | T/C (dose: 39.0 mg/kg/injection, schedule: Q01DX005 (ip), vehicle: Klucel (hydroxypropylcellulose) (HPC)): 100 % of control | T/C (dose: 78.0 mg/kg/injection, schedule: Q01DX005 (ip), vehicle: Klucel (hydroxypropylcellulose) (HPC)): 89 % of control

COc1cccc2c1C(=O)c1c(O)c3c(c(O)c1C2=O)CC(O)(C(C)=O)CC3OC1CC([N+](C)(C)C)C(O)C(C)O1 (stereo not drawn)
T/C (dose: 1.56 mg/kg/injection, schedule: Q01DX009 (ip), vehicle: water): 101 % of control | T/C (dose: 3.12 mg/kg/injection, schedule: Q01DX009 (ip), vehicle: water): 90 % of control | T/C (dose: 3.13 mg/kg/injection, schedule: Q01DX009 (ip), vehicle: water): 113 % of control | T/C (dose: 6.25 mg/kg/injection, schedule: Q01DX009 (ip), vehicle: water): 118 % of control | T/C (dose: 12.5 mg/kg/injection, schedule: Q01DX009 (ip), vehicle: water): 110 % of control and 112 % of control | T/C (dose: 25.0 mg/kg/injection, schedule: Q01DX009 (ip), vehicle: water): 111 % of control and 120 % of control

N/C(=N\C(=O)OCc1ccccc1)N(CCCC(NC(=O)OCc1ccccc1)C(=O)O)C(=O)OCc1ccccc1 (stereo not drawn)
T/C (dose: 60.0 mg/kg/injection, schedule: Q01DX005 (ip), vehicle: saline with Tween-80): 104 % of control | T/C (dose: 120.0 mg/kg/injection, schedule: Q01DX005 (ip), vehicle: saline with Tween-80): 87 % of control | T/C (dose: 240.0 mg/kg/injection, schedule: Q01DX005 (ip), vehicle: saline with Tween-80): 88 % of control

CN1CCC(O)(c2nccc3ccccc23)CC1
T/C [1]: 111 % of control | T/C [2]: 96 % of control

CCOP(=O)(O)SP(=O)(O)OCC.CCOP(=O)(O)SP(=O)(O)OCC.[Mn]
T/C (dose: 50.0 mg/kg/injection, schedule: Q04DX002 (ip), vehicle: saline): 117 % of control | T/C (dose: 100.0 mg/kg/injection, schedule: Q04DX002 (ip), vehicle: saline): 113 % of control and 117 % of control

CC(=O)/C=C(\C)Nc1ccccc1
T/C [3]: 106 % of control | T/C [4]: 102 % of control | T/C [5]: 91 % of control and 97 % of control | T/C [6]: 97 % of control

C1O[C@@H]1[C@H]1CO1
T/C (dose: 6.25 mg/kg/injection, schedule: Q01DX009 (ip), vehicle: saline): 104 % of control | T/C (dose: 6.25 mg/kg/injection, schedule: Q04DX003 (ip), vehicle: saline): 120 % of control | T/C [3]: 109 % of control | T/C (dose: 12.5 mg/kg/injection, schedule: Q04DX003 (ip), vehicle: saline): 120 % of control | T/C [4]: 157 % of control | T/C (dose: 25.0 mg/kg/injection, schedule: Q04DX003 (ip), vehicle: saline): 100 % of control

CCN(CC)c1ccc(NC(=S)NN)cc1
T/C (dose: 60.0 mg/kg/injection, schedule: Q01DX005 (ip), vehicle: Klucel (hydroxypropylcellulose) (HPC)): 100 % of control | T/C (dose: 120.0 mg/kg/injection, schedule: Q01DX005 (ip), vehicle: Klucel (hydroxypropylcellulose) (HPC)): 97 % of control

CCOC(=O)COc1cc2c(cc1C(C)c1cc(OC)c(OC)c(OC)c1)OCO2 (stereo not drawn)
T/C [7]: 100 % of control | T/C [8]: 105 % of control | T/C (dose: 200.0 mg/kg/injection, schedule: Q01DX005 (ip), vehicle: saline with Tween-80): 99 % of control

Cc1ccc(OP(=O)(Oc2ccc(C)cc2)Oc2ccc(C)cc2)cc1.Cc1ccc(OP(=O)(Oc2ccc(C)cc2)Oc2ccc(C)cc2)cc1.Cc1ccc(OP(=O)(Oc2ccc(C)cc2)Oc2ccc(C)cc2)cc1.Cc1ccc(OP(=O)(Oc2ccc(C)cc2)Oc2ccc(C)cc2)cc1.[Cu+2].[O-][Cl+3]([O-])([O-])O
T/C [1]: 96 % of control | T/C [2]: 94 % of control | T/C (dose: 200.0 mg/kg/injection, schedule: Q01DX001 (ip), vehicle: Klucel (hydroxypropylcellulose) (HPC)): 92 % of control

O=C(O)C1CSCN1c1cccc[n+]1[O-] (stereo not drawn)
T/C (dose: 25.0 mg/kg/injection, schedule: Q01DX005 (ip), vehicle: saline with Tween-80): 101 % of control | T/C [7]: 102 % of control | T/C [8]: 99 % of control

COc1ccccc1N1C(=O)/C(=N\OC(=O)c2c(-c3c(Cl)cccc3Cl)noc2C)SC1=S
T/C [5]: 104 % of control | T/C (dose: 100.0 mg/kg/injection, schedule: Q01DX009 (ip), vehicle: saline): 90 % of control | T/C [6]: 89 % of control

c1cc(-c2cc(-c3cc(-c4ccncc4)n[nH]3)[nH]n2)ccn1
T/C (dose: 60.0 mg/kg/injection, schedule: Q01DX005 (ip), vehicle: Klucel + Tween-80): 91 % of control | T/C (dose: 120.0 mg/kg/injection, schedule: Q01DX005 (ip), vehicle: Klucel + Tween-80): 100 % of control | T/C (dose: 240.0 mg/kg/injection, schedule: Q01DX005 (ip), vehicle: Klucel + Tween-80): 91 % of control
